These results are taken from publication PMC12036557, “Functional Imaging of CYP3A4 at Multiple Dimensions Using an AI‐Driven High Performance Fluorogenic Substrate” (Small (Weinheim an Der Bergstrasse, Germany), 2025).

Where two headings read alike, the source gives them in different places.

For series [1], the target named is T1, hCYP3A4 in HLMs (Homo sapiens, UniProt P08684). In words: NFa-based screening and characterizing of hCYP3A4 inhibitors in HLMs. Particulars: inhibitor 1 μM, HLMs, NFa as fluorogenic substrate.
Series [2] deals with T2, CYP3A4 (Homo sapiens, UniProt P08684). In words: in vitro. To be noted: pH 7.4.
For series [3], the target named is T1, hCYP3A4 in HLMs. Particulars: 1 µM.
For series [4], the target named is T2, CYP3A4. The arrangement: expressed in transfected cells; host or cells: CHO-3A4 stably transfected cell line. Particulars: cited from earlier work; for Specificity / cell-membrane permeability (Shortages): previously reported fluorescent substrates; for Specificity: ref 7-10 of the supplement; for cell-membrane permeability (Shortages): 9 of the supplement.
Series [5] can be described thus: Metabolic stability assay of 4-HNFa in phase II metabolizing system. The format is in vitro ADME. Particulars: human, pH 7.4; HLMs in the presence of UDPGA; read-out: metabolic half-life t1/2.
Series [6] has as its target T2, CYP3A4. In words: Enzyme kinetic analyses of NFs 4-hydroxylation by hCYP3A4. Type of series: biochemical. The arrangement: purchased Cypex.
Series [7] deals with panel of human recombinant cytochrome P450 enzymes. The series is described as follows: P450 reaction phenotyping analysis. Type of series: biochemical. Particulars: each recombinant CYP 2.5 nM, 37 °C, 30 min.
Series [8] can be described thus: Optical properties, photostability and pH stability of NFa and 4-HNFa. The arrangement: maximum UV absorption: unit not given here. The format is physicochemical.
Series [9] deals with MCF‐7, Hep3B, and U87 cells. In words: Cytotoxicity assays. The format is cell-based.
In series [10] the target is T2, CYP3A4. The series is described as follows: NFa-based screening and characterizing of hCYP3A4 inhibitors in HLMs. To be noted: human, human liver microsomes, pH 7.4, probe NFa (4-hydroxylation to 4-HNFa).

T2 sequence (P08684 whole entry): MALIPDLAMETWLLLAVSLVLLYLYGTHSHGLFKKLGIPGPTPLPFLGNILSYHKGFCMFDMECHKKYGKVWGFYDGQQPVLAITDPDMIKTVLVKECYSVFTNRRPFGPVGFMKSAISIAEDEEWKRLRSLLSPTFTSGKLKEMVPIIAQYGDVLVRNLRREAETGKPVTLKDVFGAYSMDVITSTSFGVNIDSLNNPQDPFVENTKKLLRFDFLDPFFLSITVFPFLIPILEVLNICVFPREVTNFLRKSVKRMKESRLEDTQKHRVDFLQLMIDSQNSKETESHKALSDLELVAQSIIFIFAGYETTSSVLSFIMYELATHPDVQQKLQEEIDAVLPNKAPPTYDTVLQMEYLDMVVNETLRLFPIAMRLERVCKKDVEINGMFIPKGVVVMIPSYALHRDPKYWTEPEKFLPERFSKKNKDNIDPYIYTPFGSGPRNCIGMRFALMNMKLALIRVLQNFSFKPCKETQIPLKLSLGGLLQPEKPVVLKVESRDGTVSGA
T1 sequence (P08684 whole entry): as above

For the molecule `C=CC(C)(C)c1cc(/C=C/C(=O)c2ccc(O)cc2)c(OC)cc1O` [Licochalcone A], the Residual activity on hCYP3A4 in HLMs [1] stood at 39.20%.
Turning to `O=C1c2ccccc2C(=O)c2ccccc21` [Anthraquinone], the activity at 30 min, 1 µM on CYP3A4 [2] is 94.3%.
In the case of `COc1ccc2c(c[n+](C)c3c4cc5c(cc4ccc23)OCO5)c1OC` [Chelerythrine], on CYP3A4 [2], the activity at 1 µM worked out at 89.6%.
On the same count and under the same terms, the same measure for `CN1[C@@H]2C[C@@H](OC(=O)[C@H](CO)c3ccccc3)C[C@H]1[C@@H]1O[C@@H]12` [Scopolamine]: 98.8%.
As to `COc1ccc(-c2cc(=O)c3c(OC)c(OC)c(OC)c(OC)c3o2)cc1OC` [Nobiletin], on CYP3A4 [2], the activity at 30 min, 1 µM was found to be 102%.
For `O=C1C=CC[C@@H]2[C@H]3CCCN4CCC[C@@H](CN12)[C@@H]34` [Sophocarpine], the activity at 30 min, 1 µM at CYP3A4 [2] was 94.1%.
At hCYP3A4 in HLMs [1], `O=C1c2c(O)cc(O)cc2O[C@H](c2ccc(O)cc2)[C@H]1O` [Aromadendrin] showed a Residual activity of 91.70%.
`COc1c(/C=C/C(=O)c2ccc(O)cc2)ccc(O)c1CC=C(C)C` [Licochalcone C] came in with a Residual activity at hCYP3A4 in HLMs [3] of 59.04%.
Sanggenone C returned a Residual activity at hCYP3A4 in HLMs [3] of 92.64%.
Take `O=C(OCc1ccccc1)c1ccccc1-c1c2ccc(=O)cc-2oc2cc(OCc3ccccc3)ccc12` [DBF, dibenzylfluorescein]: the Specificity entry on CYP3A4 [4] is listed as “CYP2C8, CYP3A4, CYP3A5”.
Consider `COc1ccc2c(c1)[nH]c1c(C)nccc12` [Harmine], for which the activity at 1 µM at CYP3A4 [2] turned out to be 101%.
As for `COc1ccc(-c2cc(=O)c3c(O)c(OC)c(O)cc3o2)cc1` [Pectolinarigenin], the activity at 30 min, 1 µM at CYP3A4 [2] is 98%.
On to `CC[C@@]1(O)C(=O)OCc2c1cc1n(c2=O)Cc2cc3ccccc3nc2-1` [Camptothecin], for which, on CYP3A4 [2], the activity at 30 min, 1 µM was found to be 93.8%.
The same measure, in the same setting: the same measure for `O=c1c(-c2ccc(O)cc2)coc2cc(O)ccc12` [Daidzein]: 97.4%.
In the case of `O=c1ccc2ccc(O)cc2o1` [7‐hydroxycoumarin, reference compound], the half-life at 20 μM in series [5] is 16.9 min.
With `COc1ccc(-c2cc(=O)c3c(O)c(OC)c(O)c(OC)c3o2)cc1` [Lysionotin], the Residual activity at hCYP3A4 in HLMs [1] amounted to 96.88%.
The same measure, in the same setting: for `O=C1C[C@@H](c2ccc(O)cc2)Oc2cc(O)ccc21` [Liquiritigenin] the value was 90.60%.
For `COc1ccc(-c2oc3c(CC=C(C)C)c(O)cc(O)c3c(=O)c2O)cc1` [Icaritin], the activity at 30 min, 1 µM at CYP3A4 [2] was 90.1%.
Consider `COc1cc2c(cc1OC)-c1cc3ccc4c(c3c[n+]1CC2)OCO4` [Epiberberine], for which the Residual activity on hCYP3A4 in HLMs [1] worked out at 89.82%.
`CC1(C)CC[C@]2(C(=O)O)CC[C@]3(C)C(=CC[C@@H]4[C@@]5(C)CC[C@H](O)C(C)(C)[C@@H]5CC[C@]43C)[C@@H]2C1` [Oleanolic acid]: the activity at 1 µM on CYP3A4 [2] was 70.2%.
Turning to `CC(C)c1nc(CN2C(=O)c3cccc4cccc(c34)C2=O)cs1` [NFd, N-(2-Isopropyl-4-thiazolemethanamino)-naphtahlimide], on CYP3A4 [6], the “CL int (V max/K m)” value is listed as 504 µL min^−1/nmol hCYP3A4 and the K m turned out to be 4.17 ± 0.21 µM. In [7], the “isoform specificity as P450 substrate” value is on record as “highly specific substrates for hCYP3A4”.
Consider `CCN1C[C@]2(COC)[C@H](O)C[C@H](OC)[C@@]34[C@@H]5C[C@@]6(O)[C@H](OC(=O)c7ccccc7)[C@@H]5[C@@](OC(C)=O)([C@@H]([C@H](OC)[C@H]23)[C@@H]14)[C@@H](O)[C@@H]6OC` [Aconitine], for which the activity at 30 min, 1 µM on CYP3A4 [2] is 94.8%.
Turning to `C=C1[C@H]2C[C@@]3([C@@H]1O)[C@@H](CC2=O)[C@]12[C@@H]4C[C@H]3[C@H]1N(CC)C[C@]4(C)CC[C@@H]2O` [Songorine], on CYP3A4 [2], the activity at 1 µM is 104%.
On to `CC(C)=CCC[C@](C)(O)[C@H]1CC[C@]2(C)[C@@H]1[C@H](O)C[C@@H]1[C@@]3(C)CC[C@H](O)C(C)(C)[C@@H]3[C@@H](O)C[C@]12C` [Protopanaxatriol], for which the Residual activity on hCYP3A4 in HLMs [1] turned out to be 43.85%.
For the molecule `O=C1C=CC[C@@H]2[C@H]3CCC[N+]4([O-])CCC[C@@H](CN12)[C@@H]34` (some centres unmarked) [Oxysophocarpine], on CYP3A4 [2], the activity at 1 µM was determined as 96.1%.
Turning to `COc1ccc2cc1Oc1ccc(cc1)C[C@H]1c3cc(c(OC)cc3CCN1C)Oc1c(OC)c(OC)cc3c1[C@H](C2)N(C)CC3` [Tetrandrine], the activity at 30 min, 1 µM at CYP3A4 [2] came out at 95.2%.
For the molecule `O=C1C[C@@H]2OCC=C3CN4CC[C@]56c7ccccc7N1[C@H]5[C@H]2[C@H]3C[C@H]46` [Strychnine], the activity at 30 min, 1 µM at CYP3A4 [2] was determined as 96.3%.
`COc1cc(C2Oc3cc([C@H]4Oc5cc(O)cc(O)c5C(=O)[C@@H]4O)ccc3OC2CO)ccc1O` (some centres unmarked) [Silybin]: the activity at 30 min, 1 µM on CYP3A4 [2] was determined as 89%.
`COc1ccc(-c2oc3c(CC=C(C)C)c(O)cc(O)c3c(=O)c2O)cc1` [Anhydroicaritin] registered a Residual activity on hCYP3A4 in HLMs [1] of 87.82%.
With `COc1cc2c(=O)n(C)c3c4cc5c(cc4ccc3c2cc1OC)OCO5` [Oxynitidine], the Residual activity at hCYP3A4 in HLMs [1] was found to be 89.98%.
Still for that read-out and setting: the same measure for `CC(C)=CCc1cc(C(=O)/C=C/c2ccc(O)cc2)c(O)cc1O` [Bavachalcone]: 90.43%.
As for `COC[C@@]12CC[C@H](OC)[C@]34C(C([C@H](OC)[C@H]13)[C@]1(OC(C)=O)[C@H]3[C@@H](OC(=O)c5ccccc5)[C@](O)(C[C@H]34)[C@@H](OC)[C@@H]1O)N(C)C2` [Hypaconitine], the activity at 1 µM on CYP3A4 [2] came out at 94.9%.
For `O=c1ccc2nc3ccc(OCc4ccccc4)cc3oc-2c1` [BzRes, 7-benzyloxyresorufin], at CYP3A4 [4], the “cell-membrane permeability (Shortages)” value is “low cell-membrane permeability; unavailable in vivo” and the Specificity result was “CYP3A4 non-specific substrate”.
`O=c1cc(C(F)(F)F)c2ccc(OCc3ccccc3)cc2o1` [BFC, 7-benzyloxy-4-trifluoromethylcoumarin]: the Specificity entry on CYP3A4 [4] is reported as “CYP3A4 non-specific substrate”.
On to `COc1cc2c(cc1OC)C(=O)/C(=C/c1ccccc1)C2` [D1, (E)-2-benzylidene-5,6-dimethoxy-2,3-dihydro-1H-inden-1-one], for which the activity at 1 µM at CYP3A4 [2] was 88%.
`O=c1cccc2n1C[C@@H]1CNC[C@H]2C1` [Cytisine]: the activity at 1 µM at CYP3A4 [2] was 94.1%.
On the same count and under the same terms, for `c1c2c(cc3c1OCO3)-c1cc3ccc4c(c3c[n+]1CC2)OCO4` [Coptisine] the value was 77.9%.
On to `COc1ccc([C@@H]2CC(=O)c3c(O)cc(O)cc3O2)cc1O` [Hesperetin], for which the activity at 30 min, 1 µM on CYP3A4 [2] was determined as 96.8%.
Consider `CN1[C@@H]2CC[C@H]1C[C@@H](OC(=O)[C@H](CO)c1ccccc1)C2` [Hyoscyamine], for which the activity at 1 µM at CYP3A4 [2] turned out to be 98%.
For `CCN1C[C@]2(OC(=O)c3ccccc3NC(C)=O)CC[C@H](OC)[C@@]34[C@@H]2C[C@@H]([C@@H]13)[C@@]1(O)C[C@H](OC)[C@H]2C[C@@H]4[C@]1(O)[C@H]2OC` [Lappaconitine], at hCYP3A4 in HLMs [1], the Residual activity was determined as 94.46%.
For `Cc1nc(CN2C(=O)c3cccc4cccc(c34)C2=O)cs1` [NFb, N-(2-Methyl-4-thiazolemethanamino)-naphtahlimide], on CYP3A4 [6], the “CL int (V max/K m)” value is recorded as 558 µL min^−1/nmol hCYP3A4 and the K m came out at 7.51 ± 0.49 µM. Besides, in series [7], the “isoform specificity as P450 substrate” value is reported as “highly specific substrates for hCYP3A4”.
Take `COc1cc2c(cc1O)[C@@H](Cc1ccc(O)c(Oc3ccc(C[C@@H]4c5cc(OC)c(OC)cc5CCN4C)cc3)c1)N(C)CC2` [Daurisoline]: on hCYP3A4 in HLMs [1], the Residual activity amounted to 91.85%.
For the molecule `CC(C)=CCCC(C)(O)[C@H]1CC[C@]2(C)[C@@H]1[C@H](O)C[C@@H]1[C@@]3(C)CC[C@H](O)C(C)(C)[C@@H]3CC[C@]12C` (stereo in doubt) [Protopanaxadiol], the Residual activity at hCYP3A4 in HLMs [1] was 69.66%.
Consider `O=C1c2cccc3c(O)ccc(c23)C(=O)N1Cc1cscn1` [4-HNFa, 4-Hydroxyl-N-(4-thiazolemethanamino)-naphtahlimide], for which, in [8], the “Fluorescence quantum yield Φf” value is listed as 0.129, the “Molar extinction coefficient ε” value was 25300 M⁻¹ cm⁻¹, the “maximum UV absorption” value worked out at 450 and the maximum fluorogenic emission is 555 nm. For the same molecule, in series [8] (2 μM), the “pH range of stable fluorescence signals ≈555 nM” value is given as 6.5–12.0. Further, the photostability entry in [8] (continuous illumination at 450 nm) is reported as “good photostability”. In series [9], the cytotoxicity entry is given as “weak cytotoxicity”. In addition, the half-life at 20 μM in series [5] stood at 58.6 min.
In the case of `C=CCc1ccc(O)c(-c2cc(CC=C)ccc2O)c1` [Magnolol], on CYP3A4 [2], the activity at 1 µM is 106%.
In the case of `CCN1C(=O)c2cccc3cccc(c23)C1=O` [NEN, N‐ethyl‐1,8‐naphthalimide], at CYP3A4 [4], the “cell‐membrane permeability” value is recorded as “very poor cell‐membrane permeability”, the “cell-membrane permeability (Shortages)” value is recorded as “low cell-membrane permeability; unavailable in vivo” and the Specificity result is listed as “CYP3A4 specific substrate”.
Regarding `COc1ccc(-c2coc3cc(O)ccc3c2=O)cc1O` [Calycosin], the activity at 30 min, 1 µM at CYP3A4 [10] was 99.3%.
For the molecule `O[C@H]1[C@H]2c3cc4c(cc3CN3CCC(=C[C@@H]1O)[C@H]23)OCO4` [Lycorine], the activity at 1 µM on CYP3A4 [2] is 92.1%.
